The text below walks through data of US11708344B2, “Flavone derivatives for the treatment and prophylaxis of hepatitis B virus disease” (Hoffmann-La Roche Inc., priority 2018, dated 2023).

Broadly, the pIC50 is −log10 of the IC50, conventionally taken in molar units.

Series [1] deals with HBeAg (surrogate marker for cccDNA) in HepDES19 cells. The series can be described thus: Engineered HepDES19 primary screen assay (HBeAg ELISA). It is filed as cell-based, HBV. As to conditions: Hepatitis B virus, HepDES19, 120 h, read-out: IC50 (HBeAg level, HepDES19 primary screen assay), HepDES19 cells, 5 days compound incubation, HBeAg ELISA. Put shortly:
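IC50 values come from 4-parameter logistic fits of HBeAg ELISA signal, the cccDNA surrogate, with CCK-8 run in parallel for viability. Compounds at half-log dilutions with 1% DMSO were applied for 5 days at 37 °C to HepDES19 cells previously cultured 8 days without Tet.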
For orientation: ELISA stands for enzyme-linked immunosorbent assay.

Series [2] can be described thus: Human microsome stability assay. It is filed as in vitro ADME. Particulars: human liver microsomes, 1 μM test compound, 0.5 mg/mL microsomal protein, 37° C., pH 7.4, 0-30 minutes. In short, it runs like this:
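Parent compound remaining was measured by LC-MS/MS at 0, 3, 6, 9, 15 and 30 min, following ACN quench. Reactions held 1 μM compound and 0.5 mg/mL human liver microsomal protein in pH 7.4 phosphate buffer at 37 °C, started by NADPH regeneration (1 mM NADP, 1 mM MgCl2); controls lacked NADPH.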
(Microsomes from liver hold many membrane-bound enzymes, among them those of drug oxidation.)

pIC50: −log10 of the molar value.

As to `CCOc1cc(OCCO[C@H]2C[C@@H](C(=O)O)C2)c(-c2cc(=O)c3cccc(Cl)c3o2)cc1OCC` [Example C088, Cis-3-[2-[2-(8-chloro-4-oxo-chromen-2-yl)-4,5-diethoxy-phenoxy]ethoxy]cyclobutanecarboxylic acid], the pIC50 in series [1] was 4.99. Further, the “Clearance of Human microsome” value in series [2] came to 6.15 mL/min/kg.
For `COc1cc(OCCO[C@H]2C[C@@H](C(=O)O)C2)c(-c2cc(=O)c3cccc(Cl)c3o2)cc1OC(F)(F)F` [Example C089, Cis-3-[2-[2-(8-chloro-4-oxo-chromen-2-yl)-5-methoxy-4-(trifluoromethoxy)phenoxy]ethoxy]cyclobutanecarboxylic acid] the same measures were 5.42 and 6.15 mL/min/kg.
For `CC1(C)C(=O)Nc2cc(-c3cc(=O)c4cccc(Cl)c4o3)c(OCCO[C@H]3C[C@@H](C(=O)O)C3)cc21` [Example C092, cis-3-[2-[6-(8-chloro-4-oxo-chromen-2-yl)-3,3-dimethyl-2-oxo-indolin-5-yl]oxyethoxy]cyclobutanecarboxylic acid] the same measures were 4.95 and 6.15 mL/min/kg.
`CN1C(=O)C(C)(C)c2cc(OCCO[C@H]3C[C@@H](C(=O)O)C3)c(-c3cc(=O)c4cccc(Cl)c4o3)cc21` [Example C093, Cis-3-[2-[6-(8-chloro-4-oxo-chromen-2-yl)-1,3,3-trimethyl-2-oxo-indolin-5-yl]oxyethoxy]cyclobutanecarboxylic acid]: the pIC50 in series [1] was 5.11. The “Clearance of Human microsome” value in series [2] was found to be 6.15 mL/min/kg.
The corresponding values for `O=c1cc(-c2ccccc2OCCO[C@H]2C[C@@H](C(=O)O)C2)oc2c(Cl)ccc(C(F)(F)F)c12` [Example C094, cis-3-[2-[2-[8-chloro-4-oxo-5-(trifluoromethyl)chromen-2-yl]phenoxy]ethoxy]cyclobutanecarboxylic acid] are 7.40 and 6.15 mL/min/kg.
The corresponding values for `CCOc1ccc(-c2cc(=O)c3c(C(F)(F)F)ccc(Cl)c3o2)c(OCCO[C@H]2C[C@@H](C(=O)O)C2)c1` [Example C095, cis-3-[2-[2-[8-chloro-4-oxo-5-(trifluoromethyl)chromen-2-yl]-5-ethoxy-phenoxy]ethoxy]cyclobutanecarboxylic acid] are 5.48 and 9.62 mL/min/kg.
For `COc1cc(OCCO[C@H]2C[C@@H](C(=O)O)C2)c(-c2cc(=O)c3c(O)ccc(Cl)c3o2)cc1OC` [Example C098, cis-3-[2-[2-(8-chloro-5-hydroxy-4-oxo-chromen-2-yl)-4,5-dimethoxy-phenoxy]ethoxy]cyclobutanecarboxylic acid] the same measures were 5.07 and 6.15 mL/min/kg.
As for `O=c1cc(-c2ccc(C(F)(F)F)cc2OCCO[C@H]2C[C@@H](C(=O)O)C2)oc2c(Cl)ccc(O)c12` [Example C099, cis-3-[2-[2-(8-chloro-5-hydroxy-4-oxo-chromen-2-yl)-5-(trifluoromethyl)phenoxy]ethoxy]cyclobutanecarboxylic acid], the pIC50 in series [1] was 4.80. In addition, the “Clearance of Human microsome” value in series [2] came out at 7.11 mL/min/kg.
Consider `O=C(O)COCCCOc1cc(C(F)(F)F)ccc1-c1cc(=O)c2c(O)ccc(Cl)c2o1` [Example C100, 2-[3-[2-(8-chloro-5-hydroxy-4-oxo-chromen-2-yl)-5-(trifluoromethyl)phenoxy]propoxy]acetic acid], for which the pIC50 in series [1] is 6.16. Moreover, in series [2], the “Clearance of Human microsome” value is recorded as 6.15 mL/min/kg.
For `COc1c(-c2ccc(Br)cc2OCCO[C@H]2C[C@@H](C(=O)O)C2)oc2c(Cl)cccc2c1=O` [Example C101, Cis-3-[2-[5-bromo-2-(8-chloro-3-methoxy-4-oxo-chromen-2-yl)phenoxy]ethoxy]cyclobutanecarboxylic acid] the same measures were 5.62 and 6.15 mL/min/kg.
Regarding `O=c1cc(-c2cc3c(cc2OCCO[C@H]2C[C@@H](C(=O)O)C2)OC(F)(F)O3)oc2c(Cl)cccc12` [Example C102, Cis-3-[2-[[6-(8-chloro-4-oxo-chromen-2-yl)-2,2-difluoro-1,3-benzodioxol-5-yl]oxy]ethoxy]cyclobutanecarboxylic acid], the pIC50 in series [1] is 5.15. The “Clearance of Human microsome” value in series [2] turned out to be 7.11 mL/min/kg.
With `O=C(O)C1CCC(OCCCOc2cc(C(F)(F)F)ccc2-c2cc(=O)c3cccc(Cl)c3o2)C1` (centres unmarked) [Example C104, 3-[3-[2-(8-chloro-4-oxo-chromen-2-yl)-5-(trifluoromethyl)phenoxy]propoxy]cyclopentanecarboxylic acid], the pIC50 in series [1] is 5.35. The “Clearance of Human microsome” value in series [2] turned out to be 6.15 mL/min/kg.
For `O=C(O)C1CCC(OCCCOc2cc(Br)ccc2-c2cc(=O)c3cccc(Cl)c3o2)C1` (centres unmarked) [Example C105, 3-[3-[5-bromo-2-(8-chloro-4-oxo-chromen-2-yl)phenoxy]propoxy]cyclopentanecarboxylic acid] the same measures were 5.76 and 6.15 mL/min/kg.
For `CC(C)(COc1cc(Br)ccc1-c1cc(=O)c2cccc(Cl)c2o1)CO[C@H]1C[C@@H](C(=O)O)C1` [Example C110-A, cis-3-[3-[5-bromo-2-(8-chloro-4-oxo-chromen-2-yl)phenoxy]-2,2-dimethyl-propoxy]cyclobutanecarboxylic acid] the same measures were 6.36 and 6.15 mL/min/kg.
As to `CC(C)(COc1cc(Br)ccc1-c1cc(=O)c2cccc(Cl)c2o1)CO[C@H]1C[C@H](C(=O)O)C1` [Example C110-B, trans-3-[3-[5-bromo-2-(8-chloro-4-oxo-chromen-2-yl)phenoxy]-2,2-dimethyl-propoxy]cyclobutanecarboxylic acid], the pIC50 in series [1] was 5.43. Also, the “Clearance of Human microsome” value in series [2] came out at 6.15 mL/min/kg.
The corresponding values for `O=C(O)[C@@H]1CCN(C(=O)COCCOc2cc(Br)ccc2-c2cc(=O)c3cccc(Cl)c3o2)C1` [Example C111, (3R)-1-[2-[2-[5-bromo-2-(8-chloro-4-oxo-chromen-2-yl)phenoxy]ethoxy]acetyl]pyrrolidine-3-carboxylic acid] are 5.90 and 6.15 mL/min/kg.
The corresponding values for `O=C(O)[C@H]1CCN(C(=O)COCCOc2cc(Br)ccc2-c2cc(=O)c3cccc(Cl)c3o2)C1` [Example C112, (3S)-1-[2-[2-[5-bromo-2-(8-chloro-4-oxo-chromen-2-yl)phenoxy]ethoxy]acetyl]pyrrolidine-3-carboxylic acid] are 4.94 and 6.15 mL/min/kg.
For `O=C(O)COCC(O)COc1cc(C(F)(F)F)ccc1-c1cc(=O)c2cccc(Cl)c2o1` (centres unmarked) [Example C115, 2-[3-[2-(8-chloro-4-oxo-chromen-2-yl)-5-(trifluoromethyl)phenoxy]-2-hydroxy-propoxy]acetic acid] the same measures were 4.72 and 6.15 mL/min/kg.
For `O=C(COCCOc1cc(Br)ccc1-c1cc(=O)c2cccc(Cl)c2o1)NS(=O)(=O)C1CC1` [Example C116, 2-[2-[5-bromo-2-(8-chloro-4-oxo-chromen-2-yl)phenoxy]ethoxy]-N-cyclopropylsulfonyl-acetamide], the pIC50 in series [1] was 5.04. Also, the “Clearance of Human microsome” value in series [2] is listed as 6.15 mL/min/kg.
For `O=C(COCCCOc1cc(C(F)(F)F)ccc1-c1cc(=O)c2cccc(Cl)c2o1)NS(=O)(=O)C1CC1` [Example C117, 2-[3-[2-(8-chloro-4-oxo-chromen-2-yl)-5-(trifluoromethyl)phenoxy]propoxy]-N-cyclopropylsulfonyl-acetamide] the same measures were 5.60 and 7.45 mL/min/kg.
For `O=C(COCCOc1cc(C(F)(F)F)ccc1-c1cc(=O)c2cccc(Cl)c2o1)NS(=O)(=O)C1CC1` [Example C118, 2-[2-[2-(8-chloro-4-oxo-chromen-2-yl)-5-(trifluoromethyl)phenoxy]ethoxy]-N-cyclopropylsulfonyl-acetamide] the same measures were 4.83 and 6.15 mL/min/kg.
For `CS(=O)(=O)NC(=O)[C@H]1C[C@@H](OCCOc2cc(C(F)(F)F)ccc2-c2cc(=O)c3cccc(Cl)c3o2)C1` [Example C121, Cis-3-[2-[2-(8-chloro-4-oxo-chromen-2-yl)-5-(trifluoromethyl)phenoxy]ethoxy]-N-methylsulfonyl-cyclobutanecarboxamide] the same measures were 5.23 and 8.68 mL/min/kg.
